Several values for one entry are separate records, joined by “and”; a condition that tells them apart may be missing. Identical values can stand only once.
Target: T1, human glucagon receptor (hGCGR) (Homo sapiens, UniProt P47871)
T1 construct: host or cells: HEK293
Experiment: HTRF second messenger cAMP response experiment (called cell viability test) in HEK293 cells with glucagon peptide segment
Assay type: cell-based
Procedure: In order to determine the antagonistic activity of the compound A on the glucagon receptor in the above embodiments, a cell viability test is carried out. The specific implementation is as follows.
A known human glucagon receptor (hGCGR) antagonist drug is selected as a positive control, and the compound A in the above embodiments, a glucagon peptide segment (that is, human full-length glucagon), and human embryonic kidney cells containing target receptor molecules are mixed. The glucagon peptide segment binds to hGCGR to activate the hGCGR signaling pathway and release the second messenger cAMP. The compound A acts as an antagonist to inhibit the activity of hGCGR.
In an exemplary embodiment, a known hGCGR antagonist drug (L-168,049) is selected as a positive control. […] In addition, in view of the human glucagon receptor on the cell membrane of human embryonic kidney cells HEK293, HEK293 is used to test the drug activity of the human glucagon antagonist. In this embodiment, different concentrations of compound A of the present disclosure and the positive control are respectively mixed with glucagon peptide segments and HEK293 cells, the second messenger cAMP is detected through homogeneous time resolved fluorescence (HTRF), and a half maximal inhibitory concentration value of each compound is calculated according to the intensity value of HTRF.
(§1) In an exemplary embodiment, the activity of the compound A is tested using the HTRF technique. Specifically, after activation of the glucagon receptor by the glucagon peptide segment, the second messenger cAMP is released from the glucagon receptor cells, the second messenger cAMP may be detected by HTRF, and the half maximal inhibitory concentration (IC50) of the tested compound may be calculated according to the fluorescence intensity.
In an exemplary embodiment, 11 identical concentration gradients are set for the compounds A1 and A2 respectively. The activities of the compounds A1 and A2 are determined by the HTRF second messenger cAMP response experiment in triplicate.
Step S910. Select an antagonist drug of hGCGR as a positive control, and mix each target drug small molecule, a glucagon peptide segment, and human embryonic kidney cells containing the target receptor molecule. The glucagon peptide segment binds to hGCGR to activate the hGCGR signaling pathway and release the second messenger cAMP. The target drug molecule acts as an antagonist to inhibit the activity of hGCGR.
In an exemplary embodiment, an antagonist drug (such as L-168,049) of hGCGR is selected as a positive control. In addition, in view of the human glucagon receptor on the cell membrane of human embryonic kidney cells (such as HEK293), HEK293 may be used to test the drug activity of the human glucagon antagonist. The target drug small molecule, the glucagon peptide segment, and the HEK293 cells containing the target receptor molecule are mixed. The glucagon peptide segment is used to bind to hGCGR to activate the hGCGR signaling pathway and promote the release of the second messenger cAMP. The target drug molecule acts as an antagonist to inhibit the activity of hGCGR.
Step S920. Detect the second messenger cAMP through HTRF, and determine a half maximal inhibitory concentration value of each target drug small molecule according to an intensity value of HTRF.
as §1, with “each target drug small molecule (such as 30 target drug small molecules shown in Table 2)” for “the compound A”, “tested by” for “tested”, “drug molecule” for “tested compound”, “intensity. […]” for “intensity.”

T1 sequence (P47871 26-477): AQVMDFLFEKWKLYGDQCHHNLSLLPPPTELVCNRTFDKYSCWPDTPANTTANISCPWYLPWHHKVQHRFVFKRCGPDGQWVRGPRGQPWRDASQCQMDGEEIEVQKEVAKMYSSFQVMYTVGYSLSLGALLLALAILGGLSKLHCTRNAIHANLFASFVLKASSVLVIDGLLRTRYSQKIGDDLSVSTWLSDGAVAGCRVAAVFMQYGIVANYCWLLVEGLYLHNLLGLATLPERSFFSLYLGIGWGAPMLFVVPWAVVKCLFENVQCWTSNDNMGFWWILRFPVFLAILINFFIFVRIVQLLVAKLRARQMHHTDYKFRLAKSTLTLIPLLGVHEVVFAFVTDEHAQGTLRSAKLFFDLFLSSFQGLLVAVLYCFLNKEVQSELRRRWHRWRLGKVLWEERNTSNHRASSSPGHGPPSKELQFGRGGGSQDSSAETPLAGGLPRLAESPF

For `CCCOc1ccc(Br)cc1-c1cc(-c2ccc(Cl)cc2)[nH]c1-c1ccncc1` [L-168,049, 4-[3-(5-bromo-2-propoxyphenyl)-5-(4-chlorophenyl)-1H-pyrrol-2-yl]pyridine, reference compound], the IC50 (HEK293, cAMP HTRF, 11 concentrations, L-168,049 positive control per group of ten compounds) was 61.5 nM and 42.2 nM, the Inhibition percentage (concentration gradient LogM −5, HEK293 cells, glucagon peptide segment, HTRF cAMP, triplicate columns) was 100.4281% and 100.5604% and 100.8895% and the Inhibition percentage (concentration gradient LogM −5, triplicate, HEK293, cAMP HTRF) was 100.4281 percentage. The Inhibition percentage (concentration gradient LogM −5.477121, HEK293 cells, glucagon peptide segment, HTRF cAMP, triplicate columns) was 98.6132% and 96.62% and 98.1315%, the Inhibition percentage (concentration gradient LogM −5.477121, triplicate, HEK293, cAMP HTRF) was 98.6132 percentage and the Inhibition percentage (concentration gradient LogM −5.954243, HEK293 cells, glucagon peptide segment, HTRF cAMP, triplicate columns) was 98.05% and 95.17% and 94.46%. The Inhibition percentage (concentration gradient LogM −5.954243, triplicate, HEK293, cAMP HTRF) was 98.05 percentage, the Inhibition percentage (concentration gradient LogM −6.431364, HEK293 cells, glucagon peptide segment, HTRF cAMP, triplicate columns) was 93.05% and 91.9% and 88.0059% and the Inhibition percentage (concentration gradient LogM −6.431364, triplicate, HEK293, cAMP HTRF) was 93.05 percentage. The Inhibition percentage (concentration gradient LogM −6.908485, HEK293 cells, glucagon peptide segment, HTRF cAMP, triplicate columns) was 89.46% and 74.79% and 78.16%, the Inhibition percentage (concentration gradient LogM −6.908485, triplicate, HEK293, cAMP HTRF) was 89.46 percentage and the Inhibition percentage (concentration gradient LogM −7.385606, HEK293 cells, glucagon peptide segment, HTRF cAMP, triplicate columns) was 46.69% and 16.31%. For the same molecule, the Inhibition percentage (concentration gradient LogM −7.385606, triplicate, HEK293, cAMP HTRF) was 47.8261 percentage, the Inhibition percentage (concentration gradient LogM −7.862728, HEK293 cells, glucagon peptide segment, HTRF cAMP, triplicate columns) was 33.52% and 15.3532% and the Inhibition percentage (concentration gradient LogM −7.862728, triplicate, HEK293, cAMP HTRF) was 28.98 percentage. For the same molecule, the Inhibition percentage (concentration gradient LogM −8.339849, HEK293 cells, glucagon peptide segment, HTRF cAMP, triplicate columns) was −19.5336% and −9.209%, the Inhibition percentage (concentration gradient LogM −8.339849, triplicate, HEK293, cAMP HTRF) was 3.941 percentage and the Inhibition percentage (concentration gradient LogM −8.81697, triplicate, HEK293, cAMP HTRF) was −8.051 percentage. The Inhibition percentage (concentration gradient LogM −9.294091, HEK293 cells, glucagon peptide segment, HTRF cAMP, triplicate columns) was 19.0859% and −1.84%, the Inhibition percentage (concentration gradient LogM −9.294091, triplicate, HEK293, cAMP HTRF) was −3.763 percentage and the Inhibition percentage (concentration gradient LogM −9.771213, HEK293 cells, glucagon peptide segment, HTRF cAMP, triplicate columns) was −1.911% and 6.132% and 1.646%. For the same molecule, the Inhibition percentage (concentration gradient LogM −9.771213, triplicate, HEK293, cAMP HTRF) was −1.911 percentage.
